Earlier results, collected in US20220152053A1, “METHODS AND COMPOSITIONS FOR TREATING VARIOUS DISORDERS” (Amylyx Pharmaceuticals, Inc., priority 2019, published 2022).
Read-outs that look alike come from different tables or passages of the source.

Columns and labels:
subjects = conditions: prior human experience
CD-1 mice = conditions: oral, 50, 250, and 1000 mg/kg/day, 2 years
Sprague-Dawley rats = conditions: oral, 50, 250, and 1000 mg/kg/day, 2 years, males and females
liver enzyme levels = conditions: in vivo
cancer subjects = conditions: intravenous, 250-300 mg/kg/day for 14 days, repeated at 4-week intervals
[1] = system: subjects with urea cycle disorders; conditions: for Other (rare) adverse events, frequency: gastrointestinal, hematologic, cardiovascular, renal, psychiatric, skin, miscellaneous
ALS subjects = conditions: daily dosages between 9 and 21 grams, 20 weeks
[2] = system: G93A SOD1 mouse model of ALS; conditions: in vivo
rat = conditions: intrarectal instillation, 78 weeks
CYP 1A2 = biological target: T1, CYP 1A2 (Homo sapiens, UniProt P05177); conditions: at 20 times the intended clinical concentration (Cmax)
T1 sequence (P05177 1-516): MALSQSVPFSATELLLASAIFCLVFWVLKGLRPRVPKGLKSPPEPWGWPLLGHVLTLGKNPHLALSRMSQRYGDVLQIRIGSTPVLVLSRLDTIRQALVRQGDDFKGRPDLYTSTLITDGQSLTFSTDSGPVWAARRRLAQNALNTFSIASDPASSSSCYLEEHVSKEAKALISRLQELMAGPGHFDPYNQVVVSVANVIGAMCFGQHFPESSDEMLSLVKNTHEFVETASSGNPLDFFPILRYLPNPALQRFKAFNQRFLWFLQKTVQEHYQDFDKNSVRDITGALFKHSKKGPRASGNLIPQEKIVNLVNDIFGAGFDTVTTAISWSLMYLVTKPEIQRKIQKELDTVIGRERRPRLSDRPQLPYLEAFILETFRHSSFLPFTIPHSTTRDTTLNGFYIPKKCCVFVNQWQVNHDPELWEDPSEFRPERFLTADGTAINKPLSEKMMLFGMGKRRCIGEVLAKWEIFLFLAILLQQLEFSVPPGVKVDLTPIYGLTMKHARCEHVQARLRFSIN

CYP 2D6 = CYP 2D6 (Homo sapiens, UniProt P10635); conditions: at 20 times the intended clinical concentration (Cmax)
CYP 2D6, sequence (P10635 whole entry): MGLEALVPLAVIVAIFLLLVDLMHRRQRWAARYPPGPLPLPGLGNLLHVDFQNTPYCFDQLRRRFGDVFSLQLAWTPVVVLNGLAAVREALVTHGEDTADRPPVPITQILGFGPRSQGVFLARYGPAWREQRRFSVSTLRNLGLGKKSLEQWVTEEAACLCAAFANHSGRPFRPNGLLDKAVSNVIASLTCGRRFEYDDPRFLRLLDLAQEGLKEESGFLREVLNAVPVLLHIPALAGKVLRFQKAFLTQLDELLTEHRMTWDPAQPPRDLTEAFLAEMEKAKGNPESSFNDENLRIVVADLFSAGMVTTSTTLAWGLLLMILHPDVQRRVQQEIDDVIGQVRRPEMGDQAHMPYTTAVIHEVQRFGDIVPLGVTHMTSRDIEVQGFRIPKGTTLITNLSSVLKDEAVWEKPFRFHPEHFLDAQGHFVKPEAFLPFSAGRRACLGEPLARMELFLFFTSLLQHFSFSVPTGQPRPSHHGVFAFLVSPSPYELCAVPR

Compound: C[C@H](CCC(=O)NCCS(=O)(=O)O)[C@H]1CC[C@H]2[C@@H]3[C@@H](O)C[C@@H]4C[C@H](O)CC[C@]4(C)[C@H]3CC[C@]12C [TURSO, taurursodiol]
- frequency of adverse reactions (abdominal discomfort, abdominal pain, diarrhea, nausea, pruritus, rash) (subjects): ≥ 1%
- frequency of adverse reactions (abdominal discomfort, abdominal pain, diarrhea, nausea, pruritus, rash) (subjects; listed as TUDCA): > 1%

Compound: C[C@H](CCC(=O)O)[C@H]1CC[C@H]2[C@@H]3[C@@H](O)C[C@@H]4C[C@H](O)CC[C@]4(C)[C@H]3CC[C@]12C [Ursodeoxycholic acid]
- tumorigenicity (CD-1 mice): not tumorigenic
- tumorigenicity (Sprague-Dawley rats): statistically significant dose-related increased incidences of pheochromocytomas of adrenal medulla
- association with liver damage (liver enzyme levels): has not been associated with liver damage

Compound: O=C(O)Cc1ccccc1 [phenylacetate, phenylacetic acid]
- Neurotoxicity (cancer subjects): Neurotoxicity was reported

Compound: O=C(O)CCCc1ccccc1 [phenylbutyrate, sodium phenylbutyrate]
- Decreased appetite ([1]; all subjects): 4%
- Other (rare) adverse events, frequency [1]: ≤ 2%
- Other (rare) adverse events, frequency ([1]; listed as PB): < 2%
- Body odor ([1]; human, in vivo): 3%
- bad taste or taste aversion ([1]; human, in vivo): 3%
- amenorrhea/menstrual dysfunction (irregular menstrual cycles) ([1]; menstruating subjects): 23%
- safety and tolerability (ALS subjects): generally safe and tolerable
- survival [2]: increase survival

Compound: C[C@H](CCC(=O)NCCS(=O)(=O)O)[C@H]1CC[C@H]2[C@@H]3CC[C@@H]4C[C@H](O)CC[C@]4(C)[C@H]3C[C@H](O)[C@]12C [tauro-deoxycholic acid]
- effect when co-administered with a carcinogenic agent (rat): tumor-promoting effect
- tumor production, bile acid alone (rat): did not produce any tumors

Compound: Phenylacetylacetate
- inhibition of CYP 1A2 (CYP 1A2): inhibitory
- inhibition of CYP 2D6 (CYP 2D6): inhibitory
